# Results as given in ChEMBL document CHEMBL3885881, “DrugMatrix”.
# Values joined by “and” are separate entries in the source; they are usually repeats but may differ in a detail not shown here. Equal values may be shown once.
# Species on record: Rattus norvegicus
# Assay: DrugMatrix - Regimen: Daily Repeat
# Format: toxicity, organism-based, Sprague-Dawley
# Parameters: regimen Daily Repeat, gender Male, age 6-8 weeks
# Details: in vivo, po, 0 mg/kg, route oral GAVAGE, dose level Control, vehicle .5 % CMC
# [1] = 72 h, tissue Plasma, time 3 day
# [2] = 120 h, tissue Blood, time 5 day
# [3] = 120 h, tissue Plasma, time 5 day
smiles,measurement,setting,value
Cc1ccc2cc3c(ccc4ccccc43)c3c2c1CC3 [3-METHYLCHOLANTHRENE],BASOPHIL,"72 h, tissue Blood, time 3 day",0.52%
same,EOSINOPHIL,"72 h, tissue Blood, time 3 day",0.48%
same,ERYTHROCYTE COUNT,"72 h, tissue Blood, time 3 day",6.68 x10E6/uL
same,HEMATOCRIT,"72 h, tissue Blood, time 3 day",43.07%
same,HEMOGLOBIN,"72 h, tissue Blood, time 3 day",13.48 G/DL
same,LEUKOCYTE COUNT,"72 h, tissue Blood, time 3 day",11.41 x10E3/uL
same,LYMPHOCYTE,"72 h, tissue Blood, time 3 day",80.78%
same,MEAN CORPUSCULAR HEMOGLOBIN,"72 h, tissue Blood, time 3 day",20.2 pg
same,MEAN CORPUSCULAR HEMOGLOBIN CONCENTRATION,"72 h, tissue Blood, time 3 day",31.32 G/DL
same,MEAN CORPUSCULAR VOLUME,"72 h, tissue Blood, time 3 day",64.45 fL
same,MONOCYTE,"72 h, tissue Blood, time 3 day",2.23%
same,NEUTROPHIL,"72 h, tissue Blood, time 3 day",14.73%
same,PLATELET COUNT,"72 h, tissue Blood, time 3 day",1225.83 x10E3/uL
same,ALANINE AMINOTRANSFERASE,[1],44.5 u/L
same,ALBUMIN,[1],3.62 G/DL
same,ALKALINE PHOSPHATASE,[1],404.5 u/L
same,ASPARTATE AMINOTRANSFERASE,[1],71.67 u/L
same,BLOOD UREA NITROGEN,[1],15 mg/dL
same,CHLORIDE,[1],103 MEQ/L
same,CHOLESTEROL,[1],96.83 mg/dL
same,CREATINE PHOSPHOKINASE,[1],236 u/L
same,CREATININE,[1],0.43 mg/dL
same,GLUCOSE,[1],186.83 mg/dL
same,PHOSPHORUS,[1],12.67 mg/dL
same,POTASSIUM,[1],7.1 MEQ/L
same,SODIUM,[1],147.33 MEQ/L
same,TOTAL BILIRUBIN,[1],0.52 mg/dL
same,TOTAL PROTEIN,[1],6.18 G/DL
same,ABSOLUTE BASOPHIL,[2],92 cells/µL
same,ABSOLUTE EOSINOPHIL,[2],52 cells/µL
same,ABSOLUTE LYMPHOCYTE,[2],6560 cells/µL
same,ABSOLUTE MONOCYTE,[2],160 cells/µL
same,ABSOLUTE SEGMENTED NEUTROPHIL,[2],1130 cells/µL
same,BASOPHIL,[2],1.14% and 0.92%
same,EOSINOPHIL,[2],0.68% and 0.43%
same,ERYTHROCYTE COUNT,[2],7.51 x10E6/uL and 7.03 x10E6/uL
same,HEMATOCRIT,[2],46.04% and 46.55%
same,HEMOGLOBIN,[2],15.62 G/DL and 14.32 G/DL
same,LEUKOCYTE COUNT,[2],8.03 x10E3/uL and 12.22 x10E3/uL
same,LYMPHOCYTE,[2],81.54% and 82.65%
same,MEAN CORPUSCULAR HEMOGLOBIN,[2],20.84 pg and 20.35 pg
same,MEAN CORPUSCULAR HEMOGLOBIN CONCENTRATION,[2],33.94 G/DL and 30.77 G/DL
same,MEAN CORPUSCULAR VOLUME,[2],61.42 fL and 66.28 fL
same,MONOCYTE,[2],2% and 2.28%
same,NEUTROPHIL,[2],14.24% and 12.73%
same,PLATELET COUNT,[2],1427.2 x10E3/uL and 1268.67 x10E3/uL
same,ALANINE AMINOTRANSFERASE,[3],35.6 u/L and 44.5 u/L
same,ALBUMIN,[3],3.64 G/DL and 3.73 G/DL
same,ALKALINE PHOSPHATASE,[3],233 u/L and 340.83 u/L
same,ASPARTATE AMINOTRANSFERASE,[3],81 u/L and 66.5 u/L
same,BLOOD UREA NITROGEN,[3],12 mg/dL and 13.33 mg/dL
same,CHLORIDE,[3],109.4 MEQ/L and 102.17 MEQ/L
same,CHOLESTEROL,[3],47.6 mg/dL and 82.17 mg/dL
same,CREATINE PHOSPHOKINASE,[3],183.2 u/L and 146.67 u/L
same,CREATININE,[3],0.4 mg/dL and 0.35 mg/dL
same,GLUCOSE,[3],134.6 mg/dL and 186.17 mg/dL
same,LACTATE DEHYDROGENASE,[3],89.4 u/L
same,LIPASE,[3],17.2 u/L
same,PHOSPHORUS,[3],13.02 mg/dL and 11.83 mg/dL
same,POTASSIUM,[3],7 MEQ/L and 6.47 MEQ/L
same,SODIUM,[3],149.6 MEQ/L and 148.83 MEQ/L
